Assay results from publication PMC5315738 (Clinical Pharmacokinetics, 2016).
Where two headings read alike, the source gives them in different places.

Assays:
[1] = assay type: in vivo; settings: human, plasma, oral
[2] = system: HER2; settings: HER2, cell-free; cited from earlier work
[3] = system: ErbB4; settings: ErbB4, cell-free; cited from earlier work
[4] = system: EGFR, HER2, ErbB4 phosphorylation and ErbB3 transphosphorylation; settings: wide variety of cell lines; cited from earlier work
[5] = system: P-gp; settings: read-out: inhibition constant (K i), digoxin transport; cited from earlier work
[6] = system: P-gp; settings: Caco-2 monolayers and human P-gp-expressing LLC-PK1 cells; cited from earlier work
[7] = system: BCRP; settings: in vitro; cited from earlier work
[8] = system: OATP, OAT and OCT drug transporters; settings: transfected HEK293 cell lines; cited from earlier work
[9] = physiological pH range of 1–7.5; cited from earlier work
[10] = cited from earlier work
[11] = cited from earlier work; remark: listed apart in the source
[12] = system: cytochrome P450 (CYP) isoenzymes; settings: human hepatocytes and human liver microsomes; ref Boehringer Ingelheim unpublished data, 26; cited from earlier work
[13] = cited from earlier work; remark: listed apart in the source
[14] = minipigs, cited from earlier work
[15] = mouse; ref Boehringer Ingelheim unpublished data, 25, 28; cited from earlier work
[16] = rabbit; ref Boehringer Ingelheim unpublished data, 25, 28; cited from earlier work
[17] = all animal species (rabbits, rats, minipigs and mice), 0.05–0.5 μM; cited from earlier work
[18] = in vitro and in vivo toxicology studies; cited from earlier work
[19] = cited from earlier work; for V z/F, gMean / gMean terminal half-life: 10–100 mg doses
[20] = PopPK, cited from earlier work
[21] = after a high-fat, high-caloric meal; cited from earlier work
[22] = human; cited from earlier work
[23] = cited from earlier work; remark: listed apart in the source
[24] = cited from earlier work; remark: listed apart in the source
[25] = cited from earlier work; remark: listed apart in the source
[26] = cited from earlier work; remark: listed apart in the source
[27] = a P-gp substrate; cited from earlier work
[28] = cited from earlier work; remark: listed apart in the source
[29] = LUX-Lung 3, cited from earlier work
[30] = system: human serum albumin; settings: 45 g/L albumin, in vitro; cited from earlier work
[31] = afatinib 20 mg, ritonavir 200 mg twice daily administered 1 h before afatinib, healthy subjects

For CN(C)CC=CC(=O)Nc1cc2c(Nc3ccc(F)c(Cl)c3)ncnc2cc1O[C@H]1CCOC1 [afatinib, N-[4-[(3-chloro-4-fluorophenyl)amino]-7-[[(3S)-tetrahydro-3-furanyl]oxy]-6-quinazolinyl]-4-(dimethylamino)-2-butenamide], the half-life [1] is listed as about 37 h, the “potency to inhibit kinase” value [2] is listed as “nanomolar potency” and the “potency to inhibit kinase” value [3] is listed as “nanomolar potency”. The “potency of inhibition of phosphorylation in cells” value [4] was “low nanomolar range”, the Ki [5] was 3.4 µM and the “substrate of the efflux transporter P-gp” value [6] was “P-gp substrate”. The “substrate and inhibitor of the efflux transporter BCRP” value [7] was “substrate and inhibitor”, the “in vitro transport of afatinib by OATP, OAT, OCT” value [8] was “no relevant in vitro transport” and the solubility [9] was “highly soluble”. The “passive permeability through cell membranes” value [10] was “high passive permeability”, the BCS class [11] was “BCS class 1 or 3” and the “potential to inhibit or induce CYP isoenzymes” value [12] was “low potential to inhibit or induce”. The “excretion of unchanged parent compound” value ([13]; rat, ref Boehringer Ingelheim unpublished data, 25, 28) was over 50%, the volume of distribution ([13]; rats, intravenous dosing) was 16.2 L/kg and the volume of distribution ([14]; intravenous dosing) was 12.4 L/kg. The “excretion of unchanged parent compound” value ([14]; ref Boehringer Ingelheim unpublished data, 25, 28) was over 72%, the “excretion of unchanged parent compound” value [15] was over 60% and the “excretion of unchanged parent compound” value [16] was over 87%. The “Mean plasma protein binding” value [17] was over 92%, the genotoxicity [18] was “no evidence of genotoxicity” and the “time to achieve steady-state” value ([19]; once-daily dosing) was at most 8 days. For the same compound, the “V z/F, gMean” value ([19]; single doses) was 1940 L, the gMean terminal half-life ([19]; single doses) was 21 h and the “Overall drug clearance (CL/F), gMean” value ([19]; single doses) was 1050 mL/min. For the same compound, the “V z/F, gMean” value ([19]; steady state) was 2770 L, the gMean terminal half-life ([19]; steady state) was 37 h and the “Overall drug clearance (CL/F), gMean” value ([19]; steady state) was 898 mL/min. The “increase in exposure for CLCR 43 mL/min” value ([20]; 2.5th percentile) was 27.8%, the “increase in exposure in female patients” value ([20]; accounting for all other covariate effects) was 15% and the “decrease in exposure for food intake” value ([20]; food intake less than 3 h before or less than 1 h after afatinib administration) was 26%. The “reduction of AUC∞ by food” value [21] was about 39%, the “reduction of C max by food” value [21] was “approximately 50%” and the plasma protein bound [22] was “approximately 95%”. The “urinary excretion of afatinib-related radioactivity” value ([23]; ADME study) was under 5%, the “unchanged drug excreted in urine” value ([23]; approximate) was “approximately 5%” and the “effect of renal impairment on plasma protein binding” value [24] was “no effect”. For the same compound, the “increase in AUC in patients with severe renal impairment” value ([24]; severe renal impairment) was “approximately 50%”, the “effect of hepatic impairment on plasma protein binding” value [25] was “no effect” and the “increase in afatinib exposure (AUC∞) by ritonavir” value [26, 31] was 48%. The “increase in afatinib exposure (C max) by ritonavir” value [26, 31] was 39%, the “change in afatinib exposure by ritonavir” value ([26]; afatinib 40 mg, ritonavir taken concomitantly or 6 h after afatinib) was “did not relevantly change” and the “change in exposure on concomitant administration with sirolimus” value [27] was “did not result in a clinically relevant change in exposure”. For the same compound, the “decrease of mean time-matched QTcF between baseline and day 14” value ([28]; afatinib 50 mg, over 1–24 h following administration, non-significant) was 0.3 ms, the proarrhythmic potential ([28]; dose of 50 mg) was “does not have proarrhythmic potential” and the “interpatient variability in exposure (gCV)” value ([29]; day 1 of cycle three) was 67%. For the same compound, the “interpatient variability in exposure (gCV)” value ([29]; day 1 of cycle two) was 85%.
For CN(C)C/C=C/C(=O)Nc1cc2c(Nc3ccc(F)c(Cl)c3)ncnc2cc1O[C@H]1CCOC1 [afatinib dimaleate], the “binding to isolated human serum albumin” value [30] is given as 79.6%, the “dose recovered in the urine” value ([23]; within 216 h after oral dose of 15 mg [14C]-radiolabelled afatinib dimaleate) is given as 4.29% and the “dose recovered in the faeces” value ([23]; within 312 h after oral dose of 15 mg [14C]-radiolabelled afatinib dimaleate) is given as 85.4%.
